Experimental data: patent publication US7361680B2, “Indole compounds useful for the treatment of cancer” (The Regents of the University of California, priority 1999, dated 2008)

Experiments:
B-cell CLL cells = conditions: cited from earlier work
CLL cells [1] = experiment: MTT cytotoxicity assay, CLL cells; format: cell-based; conditions: Homo sapiens, CLL cell, 72 hours, duplicate
Protocol: The compounds of the invention were screened for CLL apoptotic activity by flow cytometry and a MTT-based assay. […] Primary PBL cells were acquired from the San Diego Blood Bank, San Diego, Calif. DiOC6 and PI dyes were obtained from Molecular Probes, Eugene, Oreg. Otherwise, unless indicated, all other reagents were purchased from Sigma (St. Louis, Mo.), and all test compounds were dissolved in sterile DMSO.
To get a more concise measure of the EC50 and confirm the flow cytometry results, a MTT (3-(4,5-dimethylthiazol-2-yl)-2,5-diphenyl tertrazolium bromide) assay using a procedure similar to that described by Mosmann, T., J Immunol Methods. 1983, 65, 55-63, was performed on all analogs. This method provided a larger number of datapoints so that a value for the EC50 could be extrapolated.
This assay was based on a procedure described by Mosmann. Briefly, in each well of a 96-well plate, 5×10^5 CLL cells were suspended in 100 μL of […] medium containing 10% FBS, 100 μg/mL penicillin, and 100 μg/mL streptomycin. Serial dilution of test compounds were then performed in duplicate across the plate to establish a concentration gradient from 0 to 1000 μM. After 72 hours of incubation at 37° C., the cells were incubated for 6 more hours in the presence of 20 μL of 5 mg/mL MTT (3-(4,5-dimethylthiazol-2-yl)-2,5-diphenyl tertrazolium bromide) before dissolving the resulting crystals in 50 μL lysis buffer (15% SDS, 15 mM HCl) overnight. Afterwards, the absorbance of each well was measured at […] in a Finstrument Microplate Reader, and the data was analyzed by Graphpad Prism Software, version 2.0b.

human recombinant COX-2 = target: T1, human recombinant COX-2 (Homo sapiens, UniProt P35354); experiment: COX-2 enzyme assay (PGE2 enzyme immunoassay); format: biochemical; conditions: duplicate
T1 construct: MDS Pharma Services (performed the assay); host or cells: Spodoptera frugiperda insect cells
T1 sequence (P35354 18-604): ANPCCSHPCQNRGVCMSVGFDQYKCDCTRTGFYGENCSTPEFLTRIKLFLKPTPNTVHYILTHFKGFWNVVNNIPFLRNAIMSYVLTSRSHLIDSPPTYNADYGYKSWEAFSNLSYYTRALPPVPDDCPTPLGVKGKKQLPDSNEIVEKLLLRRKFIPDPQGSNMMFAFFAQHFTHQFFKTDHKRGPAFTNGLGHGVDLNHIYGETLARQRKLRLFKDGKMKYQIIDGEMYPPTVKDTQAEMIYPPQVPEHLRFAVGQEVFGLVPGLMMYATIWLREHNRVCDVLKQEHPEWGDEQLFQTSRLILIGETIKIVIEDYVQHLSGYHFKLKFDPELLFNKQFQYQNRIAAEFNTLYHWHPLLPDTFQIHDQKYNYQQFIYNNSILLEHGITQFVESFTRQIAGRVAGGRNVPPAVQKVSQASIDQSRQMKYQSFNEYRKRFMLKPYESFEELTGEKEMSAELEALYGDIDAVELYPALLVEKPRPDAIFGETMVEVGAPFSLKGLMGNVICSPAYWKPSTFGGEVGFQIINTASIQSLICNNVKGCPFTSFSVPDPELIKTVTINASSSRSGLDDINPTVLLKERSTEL
Protocol: (§1) Compounds active in both the flow cytometry and MTT experiments were then tested for COX inhibition at 50 μM in an enzyme assay using COX-1 isolated from human platelets and human recombinant COX-2 purified from insect cells (Spodoptera frugiperda), as described by Riendeau et. al., Br J Pharmacol. 1997, 121, 105-117; Riendeau et. al., Can J Physiol Pharmacol. 1997, 75, 1088-1095; and Warner et. al. Proc Natl Acad Sci. 1999, 96, 7563-7568. These assays were performed by MDS Pharma Services, Bothell, Wash. The compounds were incubated in duplicate with COX-1 isolated from human platelets and human recombinant COX-2 purified from insect cells (Spodoptera frugiperda). Enzyme immunoassay quantification of prostaglandin E2 production from arachidonic acid in the presence (50 μM) and absence of test compounds was used to determine the percentage of COX inhibition.

[2] = target: T2, COX-1 isolated from human platelets (Homo sapiens, UniProt P23219); experiment: COX-1 enzyme assay (PGE2 enzyme immunoassay); format: biochemical; conditions: duplicate
T2 construct: COX-1 isolated from human platelets; tissue MDS Pharma Services; host or cells: human platelets
T2 sequence (P23219 24-599): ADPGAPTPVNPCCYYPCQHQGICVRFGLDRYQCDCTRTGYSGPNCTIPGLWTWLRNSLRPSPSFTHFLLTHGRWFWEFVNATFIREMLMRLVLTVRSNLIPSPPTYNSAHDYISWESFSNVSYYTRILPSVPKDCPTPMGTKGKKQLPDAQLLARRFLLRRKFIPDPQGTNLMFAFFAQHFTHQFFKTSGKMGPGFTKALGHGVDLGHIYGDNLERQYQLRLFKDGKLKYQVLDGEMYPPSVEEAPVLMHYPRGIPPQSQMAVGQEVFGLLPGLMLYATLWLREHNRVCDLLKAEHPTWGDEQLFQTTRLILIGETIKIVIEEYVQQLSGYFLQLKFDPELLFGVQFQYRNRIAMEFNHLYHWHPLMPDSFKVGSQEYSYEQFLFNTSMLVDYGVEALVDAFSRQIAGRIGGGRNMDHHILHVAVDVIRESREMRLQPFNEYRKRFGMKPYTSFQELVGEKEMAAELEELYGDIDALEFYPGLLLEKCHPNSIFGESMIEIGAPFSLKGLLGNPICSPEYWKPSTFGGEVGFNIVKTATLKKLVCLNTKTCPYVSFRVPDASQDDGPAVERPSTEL
Protocol: as §1

in vitro = conditions: human
[3] = Plasma pharmacokinetics of etodolac enantiomers; format: in vivo; conditions: 1 gram dosage, human subject
OVCAR-3 (Ovarian) = experiment: Cytotoxicity by MTT assay, OVCAR-3; format: cell-based; conditions: three days continuous exposure
CLL cells [4] = experiment: Viability of CLL cells, erythrocin B exclusion assay; conditions: for toxicity of the enantiomers to CLL cells: RPMI 1640 with 10% autologous plasma, FIG. 5
HCT-116 (Colon) = experiment: Cytotoxicity by MTT assay, HCT-116; format: cell-based; conditions: three days continuous exposure
A549 (Lung) = experiment: Cytotoxicity by MTT assay, A549; format: cell-based; conditions: three days continuous exposure
multiple myeloma cells = experiment: Killing of multiple myeloma cells in patient bone marrow (propidium iodide / anti-CD38, FACS); format: cell-based, human; conditions: 72 hours, marrow of two patients; FIGS. 9-10
prostate cancer tissue = experiment: Prostatectomy tissue samples incubated 72 hours, histology; format: cell-based
Source text: The tissues were next fixed in 4% paraformaldehyde in PBS, embedded in paraffin, sectioned and stained with hematoxylin and eosin.

PC-3 (Prostate) = experiment: Cytotoxicity by MTT assay, PC-3; format: cell-based; conditions: three days continuous exposure
Alva-31 (Prostate) = experiment: Cytotoxicity by MTT assay, Alva-31; format: cell-based; conditions: three days continuous exposure
normal bone marrow cells = experiment: Killing of normal bone marrow cells in patient bone marrow (propidium iodide / anti-CD38, FACS); format: cell-based, human; conditions: 72 hours, marrow of two patients; FIGS. 9-10
[5] = cited from earlier work
Mcl-1 = Mcl-1 level in LNCaP cells, SDS-PAGE immunoblot; format: cell-based
MDA-MB-231 (Breast) = experiment: Cytotoxicity by MTT assay, MDA-MB-231; format: cell-based; conditions: three days continuous exposure
LNCaP-FGC (Prostate) = experiment: Cytotoxicity by MTT assay, LNCaP-FGC; format: cell-based; conditions: three days continuous exposure
adjuvant polyarthritis = conditions: reduction in paw volume, prostaglandin synthetase inhibitory activity; cited from earlier work
Bag-1 = Bag-1 level in LNCaP cells, SDS-PAGE immunoblot; format: cell-based; conditions: 100 μM, as early as two hours, FIG. 11B
CLL cells [6] = experiment: Viability of CLL cells taken from patients before and after oral etodolac; format: in vivo, human; conditions: for in vitro survival of CLL cells after treatment compared to before treatment: 400 mg tablet, second tablet 12 hours later
Protocol: The circles show CLL cells before etodolac treatment. In FIGS. 6-7, the upward pointing triangles represent CLL cell viability after etodolac treatment, wherein the cells are dispersed in medium containing the pretreatment plasma. The downward pointing triangles are CLL cells after treatment maintained in medium with the post-treatment plasma. […] Cells were analyzed within 30 minutes in a Becton Dickinson FAC-Scalibur cytofluorometer. After suitable comprehension, fluorescence was recorded at different wavelength: DiOC6 and DHR at 525 nm (Fl-1) and PI at 600 nm (FL-3).

Bcl-2 and Bax = Bcl-2 and Bax levels after etodolac incubation; format: cell-based; conditions: data not shown
normal B cells = experiment: Viability of normal B lymphocytes (anti-CD19 staining, DiOC6 fluorescence); format: cell-based, human; conditions: 1.0 mM, 24 hours
Protocol: Then B lymphocytes were identified by staining with anti-CD19 antibody, and viability was assessed by DiOC6 fluorescence.

[7] = tested on: normal peripheral blood lymphocytes (PBL); experiment: Viability of normal peripheral blood lymphocytes, erythrocin B exclusion assay; format: cell-based, human; conditions: FIG. 1
SW260 (Colon) = experiment: Cytotoxicity by MTT assay, SW260; format: cell-based; conditions: 72 h, three days continuous exposure
prostate cancer = conditions: TRAMP mouse; cited from earlier work
[8] = primary normal peripheral blood lymphocyte (PBL) cells
[9] = 200 mg dose, six elderly patients

CC(=O)Oc1ccccc1C(=O)O [aspirin]
viability of B-cell CLL cells in vitro (B-cell CLL cells): reduced the viability

CCc1cccc2c3c([nH]c12)C(CC)(CCO)OCC3 (stereo not drawn) [Compound 1, 2-(1,8-Diethyl-1,3,4,9-tetrahydropyrano[3,4-b]indol-1-yl)-ethanol]
EC50 (CLL cells [1]): 178 µM
inhibition at 50 µM (human recombinant COX-2): 0%
inhibition at 50 µM [2]: 0%
CC50 at 48 h (in vitro; [8]): ~500 µM

CCc1cccc2c3c([nH]c12)[C@@](CC)(CC(=O)O)OCC3 [R-etodolac]
maximal plasma concentration that a dosage should yield [3]: about 400 μM
IC50 (OVCAR-3 (Ovarian); Homo sapiens, 72 h): > 1000 µM
EC50 (CLL cells [1]): 247 µM
toxicity of the enantiomers to CLL cells (CLL cells [4]): equivalently cytotoxic
IC50 (HCT-116 (Colon); Homo sapiens, 72 h): 280 ± 20 µM
IC50 (A549 (Lung); Homo sapiens, 72 h): > 1000 µM
killing of multiple myeloma cells (multiple myeloma cells): dose-dependently killed
activity in prostatectomy samples (prostate cancer tissue): active
IC50 (PC-3 (Prostate); 72 h): 150 ± 15 µM
IC50 (Alva-31 (Prostate); 72 h): > 1000 µM
killing of normal bone marrow cells (normal bone marrow cells): did not kill
maximum plasma concentration [5, 9]: about 33 μM
plasma concentrations of the R-enantiomer relative to the S-enantiomer ([5]; after administration of RS-etodolac): about 10 fold higher
Mcl-1 degradation by the enantiomers (Mcl-1): induced Mcl-1 degradation at equivalent concentrations
IC50 (MDA-MB-231 (Breast); Homo sapiens, 72 h): > 1000 µM
CC50 at 48 h (in vitro): ~500 µM
IC50 (LNCaP-FGC (Prostate); 72 h): 270 ± 50 µM
anti-inflammatory activity (adjuvant polyarthritis): No anti-inflammatory activity was discernible

CCc1cccc2c3c([nH]c12)C(CC)(CC(=O)O)OCC3 (racemic) [etodolac, 1,8-Diethyl-1,3,4,9-tetrahydropyrano[3,4-b]indole-1-acetic acid]
IC50 (OVCAR-3 (Ovarian); Homo sapiens, 72 h): > 1000 µM
CLL cells killed (CLL cells [4]; 200 μM, 48 hour exposure, FIG. 2): 50%
cytotoxic effect on CLL cells, either drug alone (CLL cells [4]; fludarabine 10 nM or etodolac 10 μM alone, 48 hours, FIG. 3): ineffective
IC50 (HCT-116 (Colon); Homo sapiens, 72 h): 450 ± 15 µM
IC50 (A549 (Lung); Homo sapiens, 72 h): > 1000 µM
Bag-1 levels (Bag-1): fell
in vitro survival of CLL cells after treatment compared to before treatment (CLL cells [6]; patient one, FIG. 7): less dramatic but similar effect
in vitro survival of CLL cells after treatment compared to before treatment (CLL cells [6]; patient two, FIG. 6): shortened survival
cell death by apoptosis (DiOC6 staining, dots in left lower box) after versus before treatment (CLL cells [6]; patient two, detectable at 12 hours, increases after 24 hours, FIG. 8): much higher
Bcl-2 and Bax levels (Bcl-2 and Bax): did not alter
activity in prostatectomy samples (prostate cancer tissue): active
effect on normal basal cells in prostatectomy samples (prostate cancer tissue): did not affect normal basal cells
toxicity to tumor cells in prostatectomy samples (prostate cancer tissue; FIG. 15): selectively toxic to the tumor cells
IC50 (PC-3 (Prostate); 72 h): 340 ± 20 µM
IC50 (Alva-31 (Prostate); 72 h): > 1000 µM
viability of normal B cells compared to control cultures (normal B cells): did not reduce the viability
elimination half-life ([5]; in vivo): 6 to 8 h
Mcl-1 levels (Mcl-1; 100 μM, as early as two hours, LNCaP, FIG. 11A): fell
IC50 (MDA-MB-231 (Breast); Homo sapiens, 72 h): > 1000 µM
IC50 (LNCaP-FGC (Prostate); 72 h): 400 ± 35 µM
concentration at which significant death of normal PBLs occurred [7]: 800 µM
IC50 (SW260 (Colon)): 1000 ± 120 µM

CCc1cccc2c3c([nH]c12)[C@](CC)(CC(=O)O)OCC3 [S-etodolac]
IC50 (OVCAR-3 (Ovarian)): > 1000 µM
toxicity of the enantiomers to CLL cells (CLL cells [4]): equivalently cytotoxic
IC50 (HCT-116 (Colon)): 420 ± 50 µM
IC50 (A549 (Lung)): > 1000 µM
activity in prostatectomy samples (prostate cancer tissue): active
IC50 (PC-3 (Prostate)): 800 µM
IC50 (Alva-31 (Prostate)): > 1000 µM
maximum concentration relative to the R-enantiomer [5, 9]: 5 fold lower
Mcl-1 degradation by the enantiomers (Mcl-1): induced Mcl-1 degradation at equivalent concentrations
IC50 (MDA-MB-231 (Breast)): > 1000 µM
IC50 (LNCaP-FGC (Prostate)): 220 ± 20 µM
anti-inflammatory activity (adjuvant polyarthritis): almost all of the anti-inflammatory activity of the racemate

C[C@@H](C(=O)O)c1ccc(-c2ccccc2)c(F)c1 [R-flurbiprofen]
progression of prostate cancer (prostate cancer): inhibited progression of prostate cancer

CCc1cccc2c3c([nH]c12)C(CC)(CC(N)=O)OCC3 (stereo not drawn) [Compound 6, 2-(1,8-Diethyl-1,3,4,9-tetrahydropyrano[3,4-b]indol-1-yl)-acetamide]
EC50 (CLL cells [1]): 258 µM
inhibition at 50 µM (human recombinant COX-2): 69%
inhibition at 50 µM [2]: 36%
CC50 at 48 h (in vitro; [8]): > 500 µM

O=C(O)c1ccccc1O [salicylate]
viability of B-cell CLL cells in vitro (B-cell CLL cells): reduced the viability
